Here are results for one compound from US9630939B2, “Derivative of homoserine lactone, and preparation method and use thereof” (priority 2013, dated 2017).

For data set [1], the system named is C. violaceum CV026. Nature of the data set: Measurement of IC50 of compounds having an inhibitory effect on C. violaceum quorum sensing (purple pigment absorbance at 585 nm). Type of data set: cell-based. As to conditions: Chromobacterium violaceum, read-out: IC50 of compounds having bacterial quorum sensing inhibitory activity. The protocol: 2.1 The wells of a 12-well plate were marked as initial concentration, 2, 4, 8, 16, 32, 64, 128, 256, DMSO group, and a blank control group from left to right and from up to bottom, respectively.
2.2 The monoclonal C. violaceum CV026 grew on LB solid plate was cultured to exponational phase in a 5 ml fresh LB liquid culture medium, 50 μl was then taken for seeding in a 5 ml LB culture medium, and was cultured until the optical density OD value was about 1.0 at 585 nm; the culture was then mixed well with LB culture medium at a ratio of 1:9 by volume (with OD of about 0.15), and was added to a 12-well plate in an amount of 2 ml/well.
2.3 The compounds preliminarily screened to have quorum sensing inhibitory activity were dissolved respectively in DMSO (at a concentration of 0.065M), and then 10 μl was taken into 10 μl DMSO solution to achieve the purpose of 2-fold dilution, and so on. Each compound was gradiently diluted to a highest fold of 256 (gradient dilution of 2, 4, 8, 16, 32, 64, 128, 256 fold).
2.4 To each well, 15 μl 1000-fold diluted inducer C6—HSL (initial concentration of 0.125M) and 8 μl compound solution at each diluted gradient was added; to DMSO control group, 8 μl DMSO was added; to a blank control group, 8 μl LB culture medium was added. Finally, it was ensured that 2 ml culture in each of the 12-well plate was mixed well.
2.5 The 12-well plate was placed in a 30° C. shaker at 130 rpm and was cultured for 10-12 h.
2.6 After the culture was finished, 1 ml culture was taken from each well and was put in a 1.5 ml EP tube and then was centrifugated at 12000 rpm for 10 mins. The supernatant of the culture was sucked out, and 500 μl DMSO was added to each EP tube to dissolve the purple pigment in the culture. After the pigment was completely dissolved, centrifugation was performed at 12000 rpm for 10 mins. 200 μl supernatant pigment was put in a 96-well culture plate, and was measured for absorbance value at 585 nm by a Microplate Reader, […] the absorbance value and the corresponding concentration were plotted to get the IC50 value.

Data set [2] has as its system C. violaceum CV026. Nature of the data set: Preliminary screening of bacterial quorum sensing agonistic / inhibitory activity on LB plate (purple stain / white circle). Type of data set: cell-based. As to conditions: 1 μl of 0.065M compound spotted on LB plate with C. violaceum CV026, without (agonistic) or with inducer C6-HSL (inhibitory), 30° C., 16-18 h. The protocol: 1.1 Preparation work: different compounds to be tested (Compounds 1-29 prepared in Example 1-29 and intermediates 1-3) were weighted and then were dissolved in 200 μl DMSO (dimethyl sulfoxide) to prepare a solution at a concentration of 0.065M. 5.0 mg inducer, N-hexanoyl homoserine lactone (C6-HSL, purchased from Sigma Company), was weighted and was dissolved in 200 μl DMSO (at a concentration of 0.125M), and the compounds and the inducer were stored at 4[…] for further use. C. violaceum CV026 (donated by Professor McLean J C from Texas State University) in LB culture medium (LB culture medium consisting of 1% (percentage by mass) tryptone, 0.5% (percentage by mass) yeast extract, 1% (percentage by mass) NaCl and water) was cultured under shaking in a shaker at 30 °C, 200 rpm to get the culture medium for further use.
1.2 Method for preliminary screening of compounds having agonistic activity: 400 μl C. violaceum CV026 (at a bacterial concentration of 1×10^8/ml) was added to 5 ml melted semi-solid LB culture medium, and was mixed well; the mixed culture medium was poured into a solid LB plate; when the mixed culture medium was solidified on the plate, lattice was made thereon; 1 μl of the dissolved compounds to be tested (Compounds 1-29 in Examples 1-29, at a concentration of 0.065M) was spotted on the plate; when the compounds on the plate was dried in air, the plate was put in a 30° C. oven upside down and was cultured for a period of 16-18 h. If the compound to be tested has an agonistic effect on C. violaceum CV026 on the LB plate, purple stain will be induced on the LB plate. The agonistic activity of a compound is determined depending on whether purple stain is induced for C. violaceum CV026 on LB plate as well as the purple depth.
1.3 Method for preliminary screening of compounds having inhibitory activity: the inducer C6—HSL was diluted gradiently to 1000 times by means of 2-fold dilution; 15 μl diluted inducer and 400 μl C. violaceum CV026 in exponential phase (at a bacterial concentration of 1×10^8/ml) were mixed well and then were added to a 5 ml melted semi-solid LB culture medium; the mixture of inducer, C. violaceum, and semi-solid LB was poured onto a solid LB plate; when the mixture was solidified on the plate, lattice was made thereon; 1 μl of the dissolved compounds to be tested (Compounds 1-29 prepared in Example 1-29 and intermediates 1-3, at a concentration of 0.065M) was spotted on the plate; when the compounds on the plate were dried in air, the plate was put in a 30° C. oven upside down and was cultured for a period of 16-18 h. […] The inhibitory activity of a compound is preliminary determined depending on the size of the white circle appeared after C. violaceum CV026 was inhibited on LB plate.

`O=C(Nc1ccc(S(=O)(=O)N[C@H]2CCOC2=O)cc1)c1ccccc1C(F)(F)F` [Compound 27, (S)-2-trifluoromethyl-N-(4-(N-(2-oxotetrahydrofuran-3-yl)sulfamoyl)phenyl)benzamide] registered a melting point of 186 to 187 °C. In the data set with C. violaceum CV026 [1], the IC50 amounted to 4.91 ± 0.97 µM. Besides, in the data set on C. violaceum CV026 [2], the “Regulatory activity (bacterial quorum sensing)” value is recorded as “−”.

The IC50 is the concentration that inhibits the measured activity by half. As a reminder, the melting point is the temperature of the solid-liquid transition.
